Where two headings read alike, the source gives them in different places.
What was measured:
[1] = test system: hamster under mixed anesthesia with pentobarbital and xylazine; conditions: n=5; for Influence on the QRS interval / Influence on the RR interval: over the doses tested
anesthetized dogs = conditions: calculated on the basis of the results of the cited report; cited from earlier work

Q: With `COc1cc(N)c(Cl)cc1C(=O)NC1CCN(CCCOc2ccc(F)cc2)CC1OC` (centres unmarked) [cisapride] as the molecule, how does the “Degree of prolongation of the QT interval” value ([1]; 100 μg/kg iv) read?
A: Its value is “about 20%”.

Q: What about the “Influence on the PQ interval” value ([1]; iv, doses tested 1, 10 and 100 μg/kg) of the same molecule?
A: Its value is “did not significantly affect”.

Q: What about the “Influence on the QRS interval” value ([1]; iv) of the same molecule?
A: Its value is “did not significantly affect”.

Q: And the “Influence on the RR interval” value ([1]; iv)?
A: The value was “did not significantly affect”.

Q: What about the “Single dose for intravenous administration providing 10% of prolongation of the duration of monophasic action potential” value (anesthetized dogs) of the same molecule?
A: The value was 0.1 mg/kg.

Q: For `CC(C)(C)c1ccc(C(O)CCCN2CCC(C(O)(c3ccccc3)c3ccccc3)CC2)cc1` (centres unmarked) [terfenadine], which “Degree of prolongation of the QT interval” value ([1]; 1 mg/kg iv) is on record?
A: Its value is “about 20%”.

Q: And the “Influence on the QRS interval” value ([1]; iv)?
A: Its value is “did not significantly affect”.

Q: What about the “Influence on the RR interval” value ([1]; iv) of the same molecule?
A: The value was “did not significantly affect”.
